Measurements reported in the supplement of paper PMC8617591.

What was measured:
[1] = system: Mycobacterium tuberculosis Erdman (autoluminescent); test: AUC25, normalised area under dose response up to IC25 (three-drug combination) (fraction (0-1)); higher = more potent at low dose
Procedure: (§1)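 DiaMOND equipotent three-drug combination dose responses (10 doses, 1.5- or 2-fold spacing, centred on IC90) against autoluminescent M. tuberculosis Erdman in 8 in vitro models. Read-out is OD600, or luminescence for the intracellular and dormancy models, normalised to untreated wells. Hill-fit Einf, AUC25 and GRinf are potency metrics; FIC50 and FIC90 are total Loewe fractional inhibitory concentrations as log2 (negative = synergy).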

[2] = system: Mycobacterium tuberculosis Erdman (autoluminescent); test: Einf, fitted maximum growth inhibition of three-drug combination (fraction); higher = stronger maximal inhibition
Procedure: as §1

[3] = system: Mycobacterium tuberculosis Erdman (autoluminescent); test: total FIC90 (Loewe) at 90% inhibition, three-drug combination (log2); higher = more antagonistic
Procedure: as §1

[4] = system: Mycobacterium tuberculosis Erdman (autoluminescent); test: GRinf, maximum normalised growth rate inhibition (three-drug combination) (unitless (-1 to 1)); higher = less effect (negative = killing)
Procedure: as §1

[5] = system: Mycobacterium tuberculosis Erdman (autoluminescent); test: total FIC50 (Loewe) at 50% inhibition, three-drug combination (log2); higher = more antagonistic
Procedure: as §1

CC(C)/N=c1\cc2n(-c3ccc(Cl)cc3)c3ccccc3nc-2cc1Nc1ccc(Cl)cc1 [clofazimine] + CC(=O)NC[C@H]1CN(c2ccc(N3CCOCC3)c(F)c2)C(=O)O1 [linezolid] + COc1c(N2C[C@@H]3CCCN[C@@H]3C2)c(F)cc2c(=O)c(C(=O)O)cn(C3CC3)c12 [moxifloxacin]
Conditions	AUC25, [1]	Einf, [2]	GRinf, [4]	total FIC50, [5]	total FIC90, [3]
in vitro model: acidic pH 5.7, time point: constant (~7 days, model-specific)	0.0788	0.706	-0.3	-0.736	–
in vitro model: acidic pH 5.7, time point: terminal (~4-5 doublings, model-specific)	0.0696	0.915	-0.183	0.837	-0.131
in vitro model: intracellular J774, time point: constant = terminal	–	0.859	-0.214	–	0.527

Conditions	AUC25, [1]	Einf, [2]	GRinf, [4]	total FIC50, [5]	total FIC90, [3]
in vitro model: butyrate, time point: constant (~7 days, model-specific)	0.113	0.956	-0.279	0.741	1.3
in vitro model: butyrate, time point: terminal (~4-5 doublings, model-specific)	0.0854	0.978	-0.148	0.802	1.05
in vitro model: cholesterol 0.05 mM, time point: constant (~7 days, model-specific)	0.141	0.693	-0.0883	0.0515	–
in vitro model: cholesterol 0.05 mM, time point: terminal (~4-5 doublings, model-specific)	0.148	0.925	-0.21	0.132	1.39
in vitro model: cholesterol-high 0.2 mM, time point: constant (~7 days, model-specific)	0.139	0.935	-1	0.411	0.869
in vitro model: cholesterol-high 0.2 mM, time point: terminal (~4-5 doublings, model-specific)	0.127	1	-1	-0.0894	0.513
in vitro model: dormancy (butyrate + nitrate, low O2), time point: constant (~7 days, model-specific)	0.0737	0.903	0.201	1.33	0.822
in vitro model: dormancy (butyrate + nitrate, low O2), time point: terminal (~4-5 doublings, model-specific)	0.0474	0.983	-0.18	1.18	0.998
in vitro model: standard 7H9 glycerol, time point: constant = terminal	0.105	0.971	-0.383	0.199	1.19
in vitro model: valerate, time point: constant (~7 days, model-specific)	0.124	0.868	-0.197	0.648	–
in vitro model: valerate, time point: terminal (~4-5 doublings, model-specific)	0.0951	0.919	-0.0235	0.275	1.06

CC(C)/N=c1\cc2n(-c3ccc(Cl)cc3)c3ccccc3nc-2cc1Nc1ccc(Cl)cc1 [clofazimine] + CC(=O)NC[C@H]1CN(c2ccc(N3CCOCC3)c(F)c2)C(=O)O1 [linezolid] + NC(=O)c1cnccn1 [pyrazinamide]
Conditions	AUC25, [1]	Einf, [2]	GRinf, [4]	total FIC50, [5]	total FIC90, [3]
in vitro model: acidic pH 5.7, time point: constant (~7 days, model-specific)	0.115	0.851	-0.367	-0.389	–
in vitro model: acidic pH 5.7, time point: terminal (~4-5 doublings, model-specific)	0.099	0.964	-0.333	0.309	-1.87
in vitro model: intracellular J774, time point: constant = terminal	–	0.935	-0.0585	–	0.0502

Conditions	AUC25, [1]	Einf, [2]	GRinf, [4]	total FIC50, [5]	total FIC90, [3]
in vitro model: butyrate, time point: constant (~7 days, model-specific)	0.121	0.931	-0.0985	-0.132	1.31
in vitro model: butyrate, time point: terminal (~4-5 doublings, model-specific)	0.08	0.95	-0.0789	-0.0376	0.0936
in vitro model: cholesterol 0.05 mM, time point: constant (~7 days, model-specific)	0.131	0.722	-0.114	–	–
in vitro model: cholesterol 0.05 mM, time point: terminal (~4-5 doublings, model-specific)	0.142	0.927	-0.198	0.348	–
in vitro model: cholesterol-high 0.2 mM, time point: constant (~7 days, model-specific)	0.137	0.934	-0.71	0.27	–
in vitro model: cholesterol-high 0.2 mM, time point: terminal (~4-5 doublings, model-specific)	0.128	1	-0.983	-0.375	0.282
in vitro model: dormancy (butyrate + nitrate, low O2), time point: constant (~7 days, model-specific)	0.104	0.958	-0.0605	0.947	1.54
in vitro model: dormancy (butyrate + nitrate, low O2), time point: terminal (~4-5 doublings, model-specific)	0.0414	0.986	-0.449	0.584	0.337
in vitro model: standard 7H9 glycerol, time point: constant = terminal	0.123	0.939	-0.131	0.477	–
in vitro model: valerate, time point: constant (~7 days, model-specific)	0.119	0.8	0.241	0.731	–
in vitro model: valerate, time point: terminal (~4-5 doublings, model-specific)	0.0593	0.874	0.183	0.277	-1.05
